ChEMBL document CHEMBL4507258 (2021)

Tests used:
[1] = molecular target: 5-hydroxytryptamine receptor 2B (Homo sapiens, UniProt P41595); assay: GPCRScan assay: inhibition of 5-HT2B; design: radioligand conc. used [nm] 1.0 – 2.0, parental cells stable HEK
Mu-type opioid receptor [2] = molecular target: T1, Mu-type opioid receptor (Homo sapiens, UniProt P35372); assay: GPCRScan assay: inhibition of MOR; design: radioligand conc. used [nm] 1.0 – 2.0, parental cells stable HEK
[3] = molecular target: Alpha-2C adrenergic receptor (Homo sapiens, UniProt P18825); assay: GPCRScan assay: inhibition of Alpha2C; design: radioligand conc. used [nm] 0.5 – 1.0, parental cells stable MDCK
[4] = molecular target: T2, Sigma non-opioid intracellular receptor 1 (Homo sapiens, UniProt Q99720); assay: GPCRScan assay: inhibition of Sigma 1; design: radioligand conc. used [nm] 4.0 – 5.0, parental cells HEKT
[5] = molecular target: Muscarinic acetylcholine receptor M1 (Homo sapiens) (UniProt P11229); settings: Compound concentration 10.0 uM
[6] = molecular target: Serine/threonine-protein kinase SIK1 (Homo sapiens, UniProt P57059); assay: Inhibition of SIK1 at compound concentration of 10.0 uM using the ScanMax (DiscoverX)
[7] = molecular target: Adenosine receptor A2a (Homo sapiens) (UniProt P29274); assay: Adenosine A 2A receptor (h) CEREP ligand profiling; settings: Compound concentration 10.0 uM
[8] = molecular target: T3, D(4) dopamine receptor (Homo sapiens) (UniProt P21917); assay: Dopamine D4 receptor (h) CEREP ligand profiling; settings: Compound concentration 10.0 uM
T3 sequence (whole entry): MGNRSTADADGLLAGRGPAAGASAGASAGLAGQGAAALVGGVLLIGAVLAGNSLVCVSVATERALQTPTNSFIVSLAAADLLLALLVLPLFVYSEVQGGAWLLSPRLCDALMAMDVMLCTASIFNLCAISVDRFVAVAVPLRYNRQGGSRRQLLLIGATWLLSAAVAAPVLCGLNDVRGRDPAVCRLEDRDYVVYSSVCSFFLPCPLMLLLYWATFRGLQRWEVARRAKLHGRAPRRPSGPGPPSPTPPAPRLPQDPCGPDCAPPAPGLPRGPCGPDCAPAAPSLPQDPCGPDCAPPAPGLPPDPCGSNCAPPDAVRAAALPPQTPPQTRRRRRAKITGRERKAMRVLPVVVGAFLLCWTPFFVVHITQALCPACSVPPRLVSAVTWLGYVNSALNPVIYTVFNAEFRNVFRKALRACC

[9] = molecular target: Sodium-dependent dopamine transporter (Homo sapiens) (UniProt Q01959); assay: Dopamine uptake (h) CEREP ligand profiling; settings: Compound concentration 10.0 uM
[10] = molecular target: Galanin receptor (Homo sapiens) (UniProt O60755+O43603+P47211); assay: Galanin receptor (h) CEREP ligand profiling; assay type: protein assay; settings: Compound concentration 10.0 uM
[11] = molecular target: Histamine H2 receptor (Homo sapiens) (UniProt P25021); assay: Histamine H2 receptor CEREP ligand profiling; settings: Compound concentration 10.0 uM
[12] = molecular target: T4, Muscarinic acetylcholine receptor M2 (Homo sapiens) (UniProt P08172); assay: Muscarinic M2 receptors (h) CEREP ligand profiling; settings: Compound concentration 10.0 uM
T4 sequence (whole entry): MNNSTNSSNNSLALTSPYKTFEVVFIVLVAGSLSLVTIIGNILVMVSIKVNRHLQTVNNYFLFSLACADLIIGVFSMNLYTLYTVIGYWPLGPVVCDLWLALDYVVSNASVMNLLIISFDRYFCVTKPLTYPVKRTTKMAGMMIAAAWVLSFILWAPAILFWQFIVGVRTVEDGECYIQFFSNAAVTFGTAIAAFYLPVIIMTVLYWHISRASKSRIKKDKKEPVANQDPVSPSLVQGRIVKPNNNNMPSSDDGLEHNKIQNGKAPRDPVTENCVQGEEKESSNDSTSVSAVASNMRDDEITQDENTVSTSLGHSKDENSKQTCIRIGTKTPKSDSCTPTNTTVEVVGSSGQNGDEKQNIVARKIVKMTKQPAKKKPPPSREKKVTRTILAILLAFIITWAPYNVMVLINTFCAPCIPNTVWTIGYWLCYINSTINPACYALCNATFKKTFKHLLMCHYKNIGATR

Mu-type opioid receptor [13] = molecular target: T1, Mu-type opioid receptor; assay: mu-Opioid receptor (h) CEREP ligand profiling; settings: Compound concentration 10.0 uM
[14] = molecular target: Glutamate NMDA receptor (Rattus norvegicus) (UniProt P35439+Q00959+Q00960+Q00961+Q62645+Q8VHN2+Q9R1M7); assay: PCP receptor CEREP ligand profiling; assay type: protein-complex assay; settings: Compound concentration 10.0 uM
[15] = molecular target: Prostacyclin receptor (Homo sapiens) (UniProt P43119); assay: Prostaglandin I2 receptor CEREP ligand profiling; settings: Compound concentration 10.0 uM
[16] = molecular target: T2, Sigma non-opioid intracellular receptor 1; assay: sigma-Receptor (non-selective) CEREP ligand profiling; settings: Compound concentration 10.0 uM
[17] = Cl- ionophore CEREP ligand profiling; settings: Compound concentration 10.0 uM
[18] = molecular target: Beta-1 adrenergic receptor (Homo sapiens) (UniProt P08588); settings: Compound concentration 10.0 uM
Sequence of Beta-1 adrenergic receptor (Homo sapiens) (P08588 whole entry, looked up): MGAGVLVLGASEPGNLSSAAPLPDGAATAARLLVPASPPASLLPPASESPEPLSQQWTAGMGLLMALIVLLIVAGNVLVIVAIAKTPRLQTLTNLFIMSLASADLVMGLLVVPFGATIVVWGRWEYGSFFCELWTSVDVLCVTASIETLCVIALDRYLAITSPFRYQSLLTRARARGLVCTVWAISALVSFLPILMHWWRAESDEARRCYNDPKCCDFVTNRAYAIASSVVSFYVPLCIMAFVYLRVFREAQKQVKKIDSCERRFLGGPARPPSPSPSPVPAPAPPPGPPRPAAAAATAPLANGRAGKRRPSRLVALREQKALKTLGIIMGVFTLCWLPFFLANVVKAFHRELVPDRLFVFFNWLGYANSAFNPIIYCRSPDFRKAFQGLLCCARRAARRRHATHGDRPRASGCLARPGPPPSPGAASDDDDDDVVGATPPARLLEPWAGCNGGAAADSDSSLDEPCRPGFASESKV

Sequence of 5-hydroxytryptamine receptor 2B (P41595 whole entry): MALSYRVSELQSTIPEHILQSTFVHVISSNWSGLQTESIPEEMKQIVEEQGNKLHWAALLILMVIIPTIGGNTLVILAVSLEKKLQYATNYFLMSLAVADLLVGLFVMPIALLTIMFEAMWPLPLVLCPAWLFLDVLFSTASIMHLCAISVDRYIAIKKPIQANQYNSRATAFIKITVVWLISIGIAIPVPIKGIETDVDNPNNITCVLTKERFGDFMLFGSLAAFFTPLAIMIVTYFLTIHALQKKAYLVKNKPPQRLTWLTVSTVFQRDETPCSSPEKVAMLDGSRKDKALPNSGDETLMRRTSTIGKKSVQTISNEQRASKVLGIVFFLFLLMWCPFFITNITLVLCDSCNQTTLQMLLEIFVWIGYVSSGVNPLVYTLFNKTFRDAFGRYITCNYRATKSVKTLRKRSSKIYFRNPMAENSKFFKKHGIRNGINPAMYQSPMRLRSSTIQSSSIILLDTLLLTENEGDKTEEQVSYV
T2 sequence (Q99720 whole entry): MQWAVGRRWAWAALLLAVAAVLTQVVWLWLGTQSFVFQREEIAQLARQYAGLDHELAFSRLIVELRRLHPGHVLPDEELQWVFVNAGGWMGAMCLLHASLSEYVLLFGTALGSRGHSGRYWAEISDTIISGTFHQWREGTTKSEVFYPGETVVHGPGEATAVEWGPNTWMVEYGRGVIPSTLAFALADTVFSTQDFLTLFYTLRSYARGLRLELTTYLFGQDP
T1 sequence (P35372 whole entry): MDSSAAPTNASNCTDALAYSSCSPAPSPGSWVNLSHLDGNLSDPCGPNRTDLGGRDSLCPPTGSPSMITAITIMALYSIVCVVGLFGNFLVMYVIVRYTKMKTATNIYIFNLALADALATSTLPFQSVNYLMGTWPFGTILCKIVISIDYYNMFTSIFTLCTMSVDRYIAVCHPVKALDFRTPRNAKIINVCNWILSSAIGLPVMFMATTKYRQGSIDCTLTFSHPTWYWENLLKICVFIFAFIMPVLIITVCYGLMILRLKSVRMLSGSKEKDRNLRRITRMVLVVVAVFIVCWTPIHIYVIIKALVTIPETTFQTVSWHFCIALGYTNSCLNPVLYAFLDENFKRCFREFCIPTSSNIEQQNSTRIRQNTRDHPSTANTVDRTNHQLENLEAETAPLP
Sequence of Histamine H2 receptor (Homo sapiens) (P25021 whole entry): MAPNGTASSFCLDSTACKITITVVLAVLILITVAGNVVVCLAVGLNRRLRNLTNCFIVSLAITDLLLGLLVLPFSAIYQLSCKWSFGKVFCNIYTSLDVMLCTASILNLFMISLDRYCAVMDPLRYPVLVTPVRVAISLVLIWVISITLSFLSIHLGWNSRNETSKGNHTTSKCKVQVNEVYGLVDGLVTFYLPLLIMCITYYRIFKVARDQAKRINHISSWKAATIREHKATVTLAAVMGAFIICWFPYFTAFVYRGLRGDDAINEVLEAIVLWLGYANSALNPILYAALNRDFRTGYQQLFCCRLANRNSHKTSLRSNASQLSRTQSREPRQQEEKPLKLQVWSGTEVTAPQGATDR
Sequence of Prostacyclin receptor (Homo sapiens) (P43119 whole entry): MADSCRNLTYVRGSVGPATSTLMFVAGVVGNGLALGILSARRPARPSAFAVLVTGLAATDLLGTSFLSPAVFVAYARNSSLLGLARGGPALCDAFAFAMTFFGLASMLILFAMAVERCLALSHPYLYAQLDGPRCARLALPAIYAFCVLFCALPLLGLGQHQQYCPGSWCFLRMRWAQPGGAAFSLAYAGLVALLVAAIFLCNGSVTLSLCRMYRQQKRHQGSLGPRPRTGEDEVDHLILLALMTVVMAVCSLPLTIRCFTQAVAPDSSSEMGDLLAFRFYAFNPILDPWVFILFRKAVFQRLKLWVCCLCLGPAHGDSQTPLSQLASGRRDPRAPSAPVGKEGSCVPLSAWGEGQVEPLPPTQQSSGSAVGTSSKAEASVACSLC
Sequence of Alpha-2C adrenergic receptor (P18825 whole entry): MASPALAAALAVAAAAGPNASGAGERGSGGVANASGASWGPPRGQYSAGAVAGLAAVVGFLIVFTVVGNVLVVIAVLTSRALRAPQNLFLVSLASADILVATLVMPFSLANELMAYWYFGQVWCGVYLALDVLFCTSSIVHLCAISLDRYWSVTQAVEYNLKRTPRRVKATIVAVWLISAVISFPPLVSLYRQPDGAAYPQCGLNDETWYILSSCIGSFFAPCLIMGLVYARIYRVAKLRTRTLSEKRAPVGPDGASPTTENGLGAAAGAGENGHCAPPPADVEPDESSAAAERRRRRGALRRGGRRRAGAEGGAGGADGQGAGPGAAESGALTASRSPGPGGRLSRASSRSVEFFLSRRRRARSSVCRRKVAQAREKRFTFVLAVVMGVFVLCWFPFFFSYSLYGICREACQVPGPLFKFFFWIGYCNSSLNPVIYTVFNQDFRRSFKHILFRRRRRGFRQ
Sequence of Muscarinic acetylcholine receptor M1 (Homo sapiens) (P11229 whole entry): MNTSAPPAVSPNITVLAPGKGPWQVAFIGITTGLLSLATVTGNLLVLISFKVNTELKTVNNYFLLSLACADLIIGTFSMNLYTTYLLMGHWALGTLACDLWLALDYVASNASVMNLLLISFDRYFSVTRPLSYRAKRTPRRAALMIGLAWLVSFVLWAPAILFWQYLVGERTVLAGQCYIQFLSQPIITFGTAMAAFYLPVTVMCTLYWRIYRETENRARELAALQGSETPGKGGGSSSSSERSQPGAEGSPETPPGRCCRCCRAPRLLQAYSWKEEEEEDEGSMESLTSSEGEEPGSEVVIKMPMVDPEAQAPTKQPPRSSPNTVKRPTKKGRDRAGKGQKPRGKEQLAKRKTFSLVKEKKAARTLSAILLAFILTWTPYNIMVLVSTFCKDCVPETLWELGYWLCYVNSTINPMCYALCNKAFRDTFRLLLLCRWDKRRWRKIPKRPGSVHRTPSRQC
Sequence of Adenosine receptor A2a (Homo sapiens) (P29274 whole entry): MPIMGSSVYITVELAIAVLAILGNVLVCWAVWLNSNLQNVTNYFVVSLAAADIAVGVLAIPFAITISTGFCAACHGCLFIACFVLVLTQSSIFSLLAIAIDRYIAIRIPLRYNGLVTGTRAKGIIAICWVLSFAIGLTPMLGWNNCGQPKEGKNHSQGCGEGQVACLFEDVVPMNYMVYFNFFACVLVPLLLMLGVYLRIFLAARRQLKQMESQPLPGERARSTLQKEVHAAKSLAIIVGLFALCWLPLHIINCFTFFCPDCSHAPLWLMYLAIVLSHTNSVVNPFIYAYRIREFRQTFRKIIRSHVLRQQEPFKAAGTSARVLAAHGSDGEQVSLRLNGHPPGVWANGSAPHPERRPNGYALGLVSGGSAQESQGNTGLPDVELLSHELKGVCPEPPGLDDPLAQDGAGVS
Sequence of Sodium-dependent dopamine transporter (Homo sapiens) (Q01959 whole entry): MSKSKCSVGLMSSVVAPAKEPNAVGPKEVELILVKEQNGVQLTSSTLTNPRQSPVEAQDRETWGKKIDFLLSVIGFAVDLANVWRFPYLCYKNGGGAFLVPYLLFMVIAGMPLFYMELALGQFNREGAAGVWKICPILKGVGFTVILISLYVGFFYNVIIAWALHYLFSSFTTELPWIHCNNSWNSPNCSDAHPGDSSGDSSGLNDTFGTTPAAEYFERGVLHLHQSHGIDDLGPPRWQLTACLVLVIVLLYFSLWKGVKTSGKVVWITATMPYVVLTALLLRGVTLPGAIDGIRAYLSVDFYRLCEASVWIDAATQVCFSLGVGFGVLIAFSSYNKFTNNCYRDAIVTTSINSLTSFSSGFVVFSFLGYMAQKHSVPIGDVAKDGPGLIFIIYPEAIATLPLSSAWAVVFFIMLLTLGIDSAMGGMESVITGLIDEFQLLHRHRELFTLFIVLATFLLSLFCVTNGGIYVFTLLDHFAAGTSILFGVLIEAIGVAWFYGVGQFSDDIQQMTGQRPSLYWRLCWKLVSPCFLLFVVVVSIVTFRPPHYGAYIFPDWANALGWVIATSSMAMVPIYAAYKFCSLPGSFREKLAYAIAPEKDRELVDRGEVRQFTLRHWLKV

Compound | Ki ([1]; read-out: Ki) | Ki ([1]; read-out: pKi (converted)) | Ki (Mu-type opioid receptor [2]) | Ki [3] | Ki [4] | inhibition [5] | Kd [6] | inhibition [7] | inhibition [8] | inhibition [9] | inhibition [10] | inhibition [11] | inhibition [12] | inhibition (Mu-type opioid receptor [13]) | inhibition [14] | inhibition [15] | inhibition [16] | inhibition [17] | inhibition [18]
CCCCN(CCCC)C(=O)CN1C[C@@H](c2cc(OC)c3c(c2)OCO3)[C@H](C(=O)O)[C@H]1CC(C)(C)CCC [A-545] | 6.52 µM | 5.82 µM | 2.78 µM | 5.77 µM | 0.298 µM | 12.4% |  |  |  |  |  |  |  |  |  |  |  |  | 
CCCCN(CCCC)C(=O)CN1C[C@H](c2cc(OC)c3c(c2)OCO3)[C@@H](C(=O)O)[C@@H]1CC(C)(C)CCC [ABT-546] |  |  |  |  |  |  | > 10 µM (not active) | < 10% | < 10% | < 10% | < 10% | < 10% | < 10% | 17% | < 10% | 15% | < 10% | 61% | -6.6%
